From US4735953A, “Pharmaceutical preparation for learning stimulation and memory improvement” (priority 1986, dated 1988)

How the values were obtained:
[1] = test system: learning ability of rats in a shuttle chamber; test: Active avoidance learning in a shuttle chamber, rats; assay type: in vivo, rat; conditions: rats, hypodermally 2 mg/kg
From the text: (§1) In these experiments rats are taught to avoid an electric shock by escaping into a next chamber communicating with the first chamber by means of a special opening--a door. An electric current is applied to the chamber door consisting of metal plates. A conditional irritator is a light signal together with a sound click. The learning series consisted of 50 combinations. The number of combinations necessary for the animal's learning to escape into another chamber in response to the conditional signal was determined. Five correct responses out of 6 where regarded as the proof of stability of the acquired knowledge and were denoted as a "learning criterion". After 7 days the educational procedure was repeated, and again the number of combinations necessary to acquire the "learning criterion" was determined. In the case of difference between the first and second readings the percentage of retention of the acquired knowledge was calculated.
(§2) In this experiment the effect of the preparation according to the present invention and prior art preparations was separately evaluated for the purpose of comparison on well-learning and on specially selected poorly learning rats. […] To the poorly learning rats the animals were assigned which reached no "learning criterion" in the teaching series of 50 combinations, or, in other words, a stable knowledge of active avoidance was not worked out in them. […] The preparation according to the present invention and the prior art comparison preparations were administered before the first teaching series or thereafter.
(§3) Also studied were the effects produced upon a single and repeated administration of the preparation according to the present invention for 14 days.

[2] = test system: learning ability of rats preliminarily sorted out for poor learning ability; test: Active avoidance learning in a shuttle chamber, rats sorted out for poor learning ability; assay type: in vivo, rat; conditions: poorly learning rats, hypodermally 2 mg/kg
From the text: as §1, §2, §3

[3] = test system: rabbit's brain hemispheres; test: Amplitude of induced potential in brain hemispheres (acoustic irritation); assay type: in vivo; conditions: rabbits
Procedure: (§4) In the third series of experiments the effect of the preparation according to the present invention on the functional brain asymmetry was studied. The experiments were carried out on rabbits with electrodes implanted in the brain. The electrodes under nembutal narcosis (40 mg/kg) were implanted strictly symmetrically into the bearing zone of the temporal cortex of the right and left hemispheres on its lateral surface, whereas the indifferent electrode was secured to the nasal bones of a rabbit's skull. The acoustic irritation was applied through earphones. As the acoustic irritation a sound click caused by a square-shaped pulse from an electronic stimulator with a frequency of 0.1-0.2 Hz was used; the click intensity was adjusted within the range of from 5 to 80 Db. The amplification of the taken-off biopotentials was effected on an electroencephalograph; the induced potentials were obtained by means of an analyzer. 100 experiments on 20 animals were thus conducted; the interval between experiments on one animal was 7 days. The amplitude and form of the induced potential were determined. The asymmetry factor (Kas) was calculated by the formula: [formula] Ar --amplitude of the induced potential of the […] hemisphere, μV;
(§5) A1 --amplitude of the induced potential of the left hemisphere.
(§6) The test preparations were administered hypodermally in the form of 0.5-1.5% aqueous solutions 20 minutes before the beginning of the measurements.

[4] = test system: learning ability of mice in a shuttle chamber; test: Learning ability of mice in a shuttle chamber; assay type: in vivo, mouse; conditions: mice
[5] = test system: cerebral cortex of rabbits; test: Asymmetry factor by induced potential in the hearing zone of the cerebral cortex; assay type: in vivo, rabbit
Procedure: as §4, §5, §6

[6] = hypodermally 1 mg/kg, 12 day (retention)
[7] = hypodermally 3 mg/kg, 12 day (retention)

Nc1ccncc1 [4-aminopyridine]
Number of combinations to reach the "learning criterion" in II teaching series (after 7 days) [1]: 7.4 ± 1.2 | Number of combinations to reach the "learning criterion" in the I teaching series [1]: 17.8 ± 1.2 | Number of non-taught animals in the group [1]: 0/20 | Percentage knowledge retention [1]: 60% | % of knowledge retention [2]: 40.9% | Number of combinations till appearance of "learning criterion", I teaching [2]: 32.5 ± 2.8 | Number of combinations till appearance of "learning criterion", II-checking of retention of knowledge [2]: 19.2 ± 1.7 | Number of untaught animals in the group [2]: 11/20 | amplitude of induced potentials (in words) [3]: increased amplitude of the induced potential | Change of amplitude of induced potential, % of the control, left hemisphere ([3]; hypodermally 2 mg/kg): 140% | Change of amplitude of induced potential, % of the control, right hemisphere ([3]; hypodermally 2 mg/kg): 175% | Mean value of amplitude of induced potential, % ([3]; hypodermally 2 mg/kg): 160% | retention of the knowledge of active avoidance (in words) [4]: does not affect the retention of the knowledge of active avoidance | teaching (in words) [4]: facilitates teaching | % of avoidance reactions, group I ([4]; hypodermally 1 mg/kg, 1st day): 17% | % of avoidance reactions, group II ([4]; hypodermally 1 mg/kg, 1st day): 21% | % of avoidance reactions, group III ([4]; hypodermally 1 mg/kg, 1st day): 38% | % of avoidance reactions, group IV ([4]; hypodermally 1 mg/kg, 1st day): 51% | % of avoidance reactions, group V ([4]; hypodermally 1 mg/kg, 1st day): 55% | % of avoidance reactions, group VI ([4]; hypodermally 1 mg/kg, 1st day): 60% | % of avoidance reactions, group I [4, 6]: 48% | % of avoidance reactions, group II [4, 6]: 70% | % of avoidance reactions, group III [4, 6]: 72% | % of avoidance reactions, group IV [4, 6]: 71% | % of avoidance reactions, group V [4, 6]: 70% | % of avoidance reactions, group VI [4, 6]: 75% | % of avoidance reactions, group I ([4]; hypodermally 3 mg/kg, 1st day): 20% | % of avoidance reactions, group II ([4]; hypodermally 3 mg/kg, 1st day): 30% | % of avoidance reactions, group III ([4]; hypodermally 3 mg/kg, 1st day): 54% | % of avoidance reactions, group IV ([4]; hypodermally 3 mg/kg, 1st day): 61% | % of avoidance reactions, group V ([4]; hypodermally 3 mg/kg, 1st day): 79% | % of avoidance reactions, group VI ([4]; hypodermally 3 mg/kg, 1st day): 82% | % of avoidance reactions, group I [4, 7]: 46% | % of avoidance reactions, group II [4, 7]: 73% | % of avoidance reactions, group III [4, 7]: 74% | % of avoidance reactions, group IV [4, 7]: 74% | % of avoidance reactions, group V [4, 7]: 80% | % of avoidance reactions, group VI [4, 7]: 80% | asymmetry factor (in words) [5]: did not change or reduced the factor of asymmetry | Asymmetry factor, Preparation ([5]; hypodermally 2 mg/kg, control 0.26 ± 0.06): 0.12 ± 0.02
